Reference: US11332485B2, “Penicillin-binding protein inhibitors” (priority 2017, dated 2022)

Columns and labels:
[1] = biological target: T1, PBP3 from Escherichia coli (Escherichia coli, UniProt P0AD68); experiment: Fluorescence polarization competition binding assay with Bocillin-FL
T1 construct: made in house
Description: To determine the ability of boronic acid-based test PBP inhibitors to bind Penicillin Binding Proteins (PBPs), Bocillin-FL (fluorescently-labeled penicillin V; ThermoFisher Scientific) was used in a fluorescence polarization (FP) competition binding assay to assess boronic acid PBP inhibitor binding to PBP3 from Escherichia coli. PBP3 from Escherichia coli was cloned and purified as described previously (King, D. T, et al., ACS Infectious Diseases 2015, 1, 175-184). To establish assay conditions for competition binding, an enzyme titration/saturation binding experiment was performed. Bocillin-FL was prepared at […] in a buffer comprised of 50 mM Hepes (pH 8.0), 300 mM NaCl and 5% (v/v) glycerol. Saturation binding was performed by mixing […] of PBP3 ranging in concentrations from […] with 40 μl of the 0.2 μM Bocillin-FL solution, in individual wells of a black 384-well microplate. FP was measured immediately upon addition of PBP3 (Ex, Em), using a Cytation3 (BioTek) microplate reader and measured continuously for 60 minutes. […] The competition binding assay was validated using the beta-lactam ampicillin, with Bocillin-FL at a final concentration of 0.1 μM, PBP3 at a final concentration of 1.5 μM and concentrations of ampicillin from 0-1000 μM. PBP3 was incubated with ampicillin at different concentrations in a black 384-well microplate (Corning) for 30 minutes, then Bocillin-FL added and the FP immediately measured for 60 minutes. […] Binding assays for boronic acid PBP inhibitors were performed in an identical fashion. Representative results are shown in Table 3, where A represents a potency of >500 μM, B represents a potency between 30 μM and 500 μM inclusive, and C represents a potency of <30 μM. NT=Not Tested.

[2] = biological target: T2, PBP1a from Escherichia coli (Escherichia coli, UniProt P02918); experiment: Radioligand competition binding assay with 14C-labeled boronic acid probe (Example 96); details: 14C-labeled probe 96 at 20 μM, PBP 0.1 μM; read-out: E. coli K12 PBP1a EC50
T2 construct: made in house
T2 sequence (P02918 whole entry): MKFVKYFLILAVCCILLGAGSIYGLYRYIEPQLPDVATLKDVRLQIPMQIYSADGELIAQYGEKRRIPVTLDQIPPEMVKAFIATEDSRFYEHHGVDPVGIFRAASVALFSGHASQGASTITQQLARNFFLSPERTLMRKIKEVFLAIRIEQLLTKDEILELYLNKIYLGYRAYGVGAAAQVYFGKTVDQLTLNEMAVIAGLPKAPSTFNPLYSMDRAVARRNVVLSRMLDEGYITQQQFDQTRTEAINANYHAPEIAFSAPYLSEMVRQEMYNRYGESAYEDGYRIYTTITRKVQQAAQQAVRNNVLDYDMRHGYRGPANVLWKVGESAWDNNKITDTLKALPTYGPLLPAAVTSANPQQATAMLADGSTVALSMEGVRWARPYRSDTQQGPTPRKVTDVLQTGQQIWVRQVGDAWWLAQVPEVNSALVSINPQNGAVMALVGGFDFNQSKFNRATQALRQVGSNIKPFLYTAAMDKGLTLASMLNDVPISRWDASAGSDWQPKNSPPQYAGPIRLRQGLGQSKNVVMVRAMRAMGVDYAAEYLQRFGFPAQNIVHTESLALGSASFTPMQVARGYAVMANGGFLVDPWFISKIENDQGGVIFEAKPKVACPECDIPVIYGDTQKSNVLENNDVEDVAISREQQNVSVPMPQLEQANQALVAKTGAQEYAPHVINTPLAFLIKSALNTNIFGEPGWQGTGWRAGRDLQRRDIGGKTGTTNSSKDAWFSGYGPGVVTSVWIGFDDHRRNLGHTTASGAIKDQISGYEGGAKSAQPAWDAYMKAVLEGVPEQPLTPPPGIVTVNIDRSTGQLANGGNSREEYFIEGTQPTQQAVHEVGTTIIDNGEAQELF
Description: To determine the ability of boronic acid-based test PBP inhibitors to bind Penicillin Binding Proteins (PBPs), a radio-labelled boronic acid PBP inhibitor (Example 96) was used in competition binding assays to determine boronic acid PBP inhibitor binding to PBP1a or PBP1b from Escherichia coli. PBP1a and PBP1b were purified as described previously (Bertsche, U.; et al., J. Biol. Chem. 2005, 280 (45), 38096-38101; Born, P.; et al., J Biol. Chem. 2006. 281 (37), 26985-26993). To establish assay conditions for competition binding, an enzyme titration/saturation binding experiment was performed. Saturation binding was performed in a buffer comprised of 20 mM Tris (pH 7.5), 500 mM NaCl and 0.1% (v/v) TritonX-100, with PBP1a/PBP1b at a final concentration of 0.1 μM and 96 at final concentrations ranging from 0-100 μM. Mixtures were incubated for 60 minutes, then applied to Zeba Spin Desalting columns or plates (ThermoFisher Scientific) and centrifuged at 1000-1500×g for 2 minutes. The flow through, containing PBP bound with 96, was recovered and 100 μL mixed with 5 mL of UltimaGold liquid scintillation cocktail (Perkin Elmer), and the radioactivity counted using a Beckman Coulter LS 6500 Multipurpose scintillation counter. PBP binding of 96 approached saturation at 20 μM of ^14C-labeled probe. The competition binding assay was validated using the beta-lactam ampicillin, with 96 at a final concentration of 20 μM, PBP1a/PBP1b at a final concentration of 0.1 μM. PBP1a/PBP1b was incubated with ampicillin in a 96-well microplate for 60 minutes, then 96 was added and the mixtures incubated for an additional 60 minutes. The mixtures were then applied to Zeba Spin desalting plates and centrifuged at 1000×g for 2 minutes. The flow through was recovered and 100 μl mixed with 5 ml of UltimaGold liquid scintillation cocktail and the radioactivity counted. Ampicillin inhibited binding of 96 with an EC50 (the concentration of inhibitor required to reduce binding of 96 by 50%) of less than 0.5 μM. Binding assays with boronic acid PBP inhibitors were performed in an identical fashion. The potency of boronic acid PBP inhibitors was reported as the EC50 value.
Representative results are shown in Table 5, where A represents a potency of >100 μM, B represents a potency between 10 μM and 100 μM inclusive, and C represents a potency of <10 μM. NT=Not Tested.

S. aureus ATCC 29213 = experiment: Broth microdilution MIC assay; assay type: cell-based; details: Staphylococcus aureus, ATCC29213; broth microdilution, 16-20 hours at 37° C.; read-out: S. aureus 29213 MIC
Method in brief: (§1)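 CLSI broth microdilution in cation-supplemented Mueller-Hinton broth; 2-fold serial compound dilutions inoculated at 5×10^5 CFU/mL from 3-5 h log-phase cultures. Plates incubated 16-20 hours at 37° C. MIC read visually as lowest concentration with no bacterial growth.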

[3] = tested on: hyper-permeable E. coli 901C; experiment: Broth microdilution MIC assay; assay type: cell-based; details: Escherichia coli, read-out: E. coli 901C MIC
Method in brief: as §1

E. coli DH5α/pLBII = experiment: Broth microdilution MIC assay, empty vector control strain; assay type: cell-based; details: Escherichia coli, read-out: E. coli DH5α/pLBII Microbiological Activity (MIC)
Method in brief: (§2)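 CLSI broth microdilution in cation-supplemented Mueller-Hinton broth, 2-fold compound dilutions, 5×10^5 CFU/mL inoculum, 16-20 h at 37° C, MIC read visually as lowest concentration without growth. E. coli DH5α carries CTX-M15 on pLBII under Lac promoter, or empty pLBII as control.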

[4] = tested on: E. coli DH5α/pLBII-CTX-M15; experiment: Broth microdilution MIC assay, engineered strain producing CTX-M15; assay type: cell-based, Escherichia coli; details: Escherichia coli, read-out: E. coli DH5α/pLBII-CTX-M15 Microbiological Activity (MIC)
Method in brief: as §2

T1 sequence (P0AD68 1-577): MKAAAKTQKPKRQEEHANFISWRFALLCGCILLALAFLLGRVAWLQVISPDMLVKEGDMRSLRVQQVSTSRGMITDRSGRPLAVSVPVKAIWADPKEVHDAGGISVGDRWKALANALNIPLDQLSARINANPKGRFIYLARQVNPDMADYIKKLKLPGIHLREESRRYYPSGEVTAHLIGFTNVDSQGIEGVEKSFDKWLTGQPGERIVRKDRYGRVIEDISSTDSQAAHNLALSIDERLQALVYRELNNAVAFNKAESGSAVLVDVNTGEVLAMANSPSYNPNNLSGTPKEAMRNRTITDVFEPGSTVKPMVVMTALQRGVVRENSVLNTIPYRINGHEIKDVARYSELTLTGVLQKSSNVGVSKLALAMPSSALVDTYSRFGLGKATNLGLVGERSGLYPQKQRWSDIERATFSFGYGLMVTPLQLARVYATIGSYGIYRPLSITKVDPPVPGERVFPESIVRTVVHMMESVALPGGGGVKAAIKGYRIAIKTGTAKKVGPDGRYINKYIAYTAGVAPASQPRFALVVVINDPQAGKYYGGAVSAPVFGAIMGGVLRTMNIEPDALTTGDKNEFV

SMILES	EC50 [1] [µM]	EC50 [2] [µM]	MIC (S. aureus ATCC 29213) [µg/mL]	MIC [3] [µg/mL]	MIC (E. coli DH5α/pLBII) [µg/mL]	MIC [4] [µg/mL]
CCC(O)[C@@H](NC(=O)N1CCN(CC)C(=O)C1=O)C(=O)N[C@H]1Cc2cccc(C(=O)O)c2OB1O (single isomer, unassigned) [Example 82]	30 to 500	< 10	> 128	< 64	32 to 64	32 to 64
Nc1nc(C(=O)NC(C(=O)N[C@H]2Cc3cccc(C(=O)O)c3OB2O)c2csc(N)n2)cs1 (stereo partly drawn) [Example 17, (3R)-3-(2-(2-aminothiazol-4-yl)-2-(2-aminothiazole-4-carboxamido)acetamido)-2-hydroxy-3,4-dihydro-2H-benzo[e][1,2]oxaborinine-8-carboxylic acid]	30 to 500	> 100	< 64	< 64	32 to 64	32 to 64
Nc1nc(C(NC(=O)N2CCNC2=O)C(=O)N[C@H]2Cc3cccc(C(=O)O)c3OB2O)cs1 (stereo partly drawn) [Example 19, (3R)-3-(2-(2-aminothiazol-4-yl)-2-(2-oxoimidazolidine-1-carboxamido)acetamido)-2-hydroxy-3,4-dihydro-2H-benzo[e][1,2]oxaborinine-8-carboxylic acid]	30 to 500	< 10	64 to 128	< 64	32 to 64	32 to 64
CS(=O)(=O)N1CCN(C(=O)NC(C(=O)N[C@H]2Cc3cccc(C(=O)O)c3OB2O)c2csc(N)n2)C1=O (stereo partly drawn) [Example 20, (3R)-3-(2-(2-aminothiazol-4-yl)-2-(3-(methylsulfonyl)-2-oxoimidazolidine-1-carboxamido)acetamido)-2-hydroxy-3,4-dihydro-2H-benzo[e][1,2]oxaborinine-8-carboxylic acid]	30 to 500	< 10	64 to 128	< 64	32 to 64	32 to 64
Nc1nc(C(NC(=O)N2CCN(CCF)C(=O)C2=O)C(=O)N[C@H]2Cc3cccc(C(=O)O)c3OB2O)c(Cl)s1 (stereo partly drawn) [Example 57, (3R)-3-(2-(2-amino-5-chlorothiazol-4-yl)-2-(4-(2-fluoroethyl)-2,3-dioxopiperazine-1-carboxamido)acetamido)-2-hydroxy-3,4-dihydro-2H-benzo[e][1,2]oxaborinine-8-carboxylic acid]	30 to 500		> 128	< 64	8 to 16	8 to 16
NCCN1CCN(C(=O)NC(C(=O)N[C@H]2Cc3cccc(C(=O)O)c3OB2O)c2csc(N)n2)C(=O)C1=O (stereo partly drawn) [Example 58, (3R)-3-(2-(4-(2-aminoethyl)-2,3-dioxopiperazine-1-carboxamido)-2-(2-aminothiazol-4-yl)acetamido)-2-hydroxy-3,4-dihydro-2H-benzo[e][1,2]oxaborinine-8-carboxylic acid]	30 to 500		> 128	< 64	32 to 64	32 to 64
CCN1CCN(C(=O)N[C@H](CCO)C(=O)N[C@H]2Cc3cccc(C(=O)O)c3OB2O)C(=O)C1=O [Example 59, (R)-3-((R)-2-(4-ethyl-2,3-dioxopiperazine-1-carboxamido)-4-hydroxybutanamido)-2-hydroxy-3,4-dihydro-2H-benzo[e][1,2]oxaborinine-8-carboxylic acid]	> 500		> 128	< 64	32 to 64	32 to 64
Nc1nc(C(NC(=O)N2CCN(CCO)C(=O)C2=O)C(=O)N[C@H]2Cc3cccc(C(=O)O)c3OB2O)cs1 (stereo partly drawn) [Example 60, (3R)-3-(2-(2-aminothiazol-4-yl)-2-(4-(2-hydroxyethyl)-2,3-dioxopiperazine-1-carboxamido)acetamido)-2-hydroxy-3,4-dihydro-2H-benzo[e][1,2]oxaborinine-8-carboxylic acid]	30 to 500		64 to 128	< 64	8 to 16	8 to 16
COCCN1CCN(C(=O)NC(C(=O)N[C@H]2Cc3cccc(C(=O)O)c3OB2O)c2csc(N)n2)C(=O)C1=O (stereo partly drawn) [Example 61, (3R)-3-(2-(2-aminothiazol-4-yl)-2-(4-(2-methoxyethyl)-2,3-dioxopiperazine-1-carboxamido)acetamido)-2-hydroxy-3,4-dihydro-2H-benzo[e][1,2]oxaborinine-8-carboxylic acid]	< 30		64 to 128	< 64	32 to 64	32 to 64
CCN1CCN(C(=O)NC(C(=O)N[C@H]2Cc3cccc(C(=O)O)c3OB2O)c2csc(N)n2)CC1=O (stereo partly drawn) [Example 62, (3R)-3-(2-(2-aminothiazol-4-yl)-2-(4-ethyl-3-oxopiperazine-1-carboxamido)acetamido)-2-hydroxy-3,4-dihydro-2H-benzo[e][1,2]oxaborinine-8-carboxylic acid]	30 to 500		> 128	< 64	128 to 256	128 to 256
CC(C)CN1CCN(C(=O)NC(C(=O)N[C@H]2Cc3cccc(C(=O)O)c3OB2O)c2csc(N)n2)C(=O)C1=O (stereo partly drawn) [Example 66, (3R)-3-(2-(2-aminothiazol-4-yl)-2-(4-isobutyl-2,3-dioxopiperazine-1-carboxamido)acetamido)-2-hydroxy-3,4-dihydro-2H-benzo[e][1,2]oxaborinine-8-carboxylic acid]	30 to 500		64 to 128	< 64	32 to 64	32 to 64
Nc1nc(C(NC(=O)N2CCN(O)C(=O)C2=O)C(=O)N[C@H]2Cc3cccc(C(=O)O)c3OB2O)cs1 (stereo partly drawn) [Example 72, (3R)-3-(2-(2-aminothiazol-4-yl)-2-(4-hydroxy-2,3-dioxopiperazine-1-carboxamido)acetamido)-2-hydroxy-3,4-dihydro-2H-benzo[e][1,2]oxaborinine-8-carboxylic acid]	30 to 500		64 to 128	< 64	128 to 256	128 to 256
CCN1CCN(C(=O)N[C@@H](C(=O)N[C@H]2Cc3cccc(C(=O)O)c3OB2O)C(C)(C)C)C(=O)C1=O [Example 85, (R)-3-((R)-2-(4-ethyl-2,3-dioxopiperazine-1-carboxamido)-3,3-dimethylbutanamido)-2-hydroxy-3,4-dihydro-2H-benzo[e][1,2]oxaborinine-8-carboxylic acid]	< 30	< 10	> 128	< 64		128 to 256
